Results on one compound are retold here after patent publication US20190151236A1, “LIPOSOMAL CORTICOSTEROIDS FOR TOPICAL INJECTION IN INFLAMED LESIONS OR AREAS” (ENCELADUS PHARMACEUTICALS B.V., priority 2016, published 2019).

Like-named read-outs stand apart in the source and are kept apart here.

In one data set the test system is cataract formation. Kind of data set: Cataract formation on slit lamp biomicroscopy on day 31 (LOCS scale) in the rabbit uveitis study. As to conditions: day 31, slit lamp, FIG. 4.

Protocol for cataract formation: Clinical examination was performed by 2 masked independent investigators. Slit-lamp biomicroscopy, measurement of intraocular pressure with the Tonopen, photography of the anterior segment and dilated fundal examination with binocular indirect ophthalmoscopy using a 20D lens were performed prior to uveitis induction and at 8 defined time points thereafter (Days 0, 1, 3, 4, 8, 9, 11, 16, 24 and 31). Clinical severity of uveitis was scored by evaluating anterior chamber cells/flares, vitreous haze, and iris vessels. […] The combined anterior segment inflammatory score was defined as the sum of the scores for iris vessels, anterior chamber cells and anterior chamber flare. The presence of cataract was determined on slit lamp biomicroscopy on day 31 and graded based on the LOCS scale.

As for `C[C@]12C=CC(=O)C=C1CC[C@@H]1[C@@H]2[C@@H](O)C[C@@]2(C)[C@H]1CC[C@]2(O)C(=O)COP(=O)(O)O` [Free PP, prednisolone phosphate], the “Combined anterior segment inflammatory score” value in the data set on experimental uveitis (Day 1 after 1st intravitreal induction, before intervention (baseline), mean ± SD, sum of iris congestion (0-3), anterior chamber cells (0-4), flare (0-3)) was determined as 8.6 ± 0.5; in the data set with experimental uveitis (Day 3, at intervention (baseline, maximum inflammation)), 8.0 ± 0.7; in the data set with experimental uveitis (Day 4, one day after intervention (single 0.1 ml subconjunctival injection 4 mg/ml, or eye drops 4 drops per day)), 6.0 ± 0.7; in the data set with experimental uveitis (Day 8, 5 days after intervention, before 2nd intravitreal induction), 3.2 ± 0.4; in the data set on experimental uveitis (Day 9, 1 day after 2nd intravitreal induction) it was 8.0 ± 1.2; in the data set with experimental uveitis (Day 11, 3 days after rechallenge of intravitreal TB antigen), 7.0 ± 2.3. The “Combined anterior segment inflammatory score” value in the data set on experimental uveitis (Day 16, 2 weeks post treatment) was 5.4 ± 1.3; in the data set on experimental uveitis (Day 24) it was 2.8 ± 0.4; with experimental uveitis (Day 31), 2.2 ± 1.3. Also, the “Cataract formation (posterior subcapsular cataracts)” value with cataract formation is given as “trend towards higher rates”.
